14 compounds from ChEMBL document CHEMBL1201862, “PubChem BioAssay data set” (2004) can be followed below.

Test systems include HCT-15; HL-60; K562; UACC-257; UACC-62; IGROV-1; HCT-116; NCI-H23; HT-29; COLO 205; KM12; HOP-62; SK-MEL-28; ACHN; SF-268; NCI-H226; NCI-H522.
Experiment in all cases: NCI tumour cell line growth inhibition, 48 h

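48-hour exposure; five concentrations; linearly interpolated endpoints. GI50: concentration for 50% inhibition of growth.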 The source made the active and inactive calls. No stated cut-off is given here; in the data, active = GI50 up to about 1.1 µM and inactive = higher.

On to `NCCNCCNCc1c2ccccc2c(CNCCNCCN)c2ccccc12`, for which the GI50 in the assay with HCT-15 is greater than 100 µM; in the assay on HL-60, 46.1 µM (inactive); with K562, 25.4 µM (inactive); in the assay with UACC-257 it was > 100 µM (inactive); in the assay with UACC-62, 34 µM (inactive); with IGROV-1, 75 µM (inactive). For the same compound, the GI50 is 38 µM (inactive) in the assay with HCT-116; > 100 µM (inactive) in the assay with NCI-H23; 40.2 µM (inactive) in the assay on HT-29; 52.1 µM (inactive) in the assay with COLO 205; 40.4 µM (inactive) in the assay with KM12; 60.3 µM (inactive) in the assay on HOP-62. Moreover, the GI50 in the assay on SK-MEL-28 is > 100 µM (inactive); in the assay with ACHN it was > 100 µM (inactive); with SF-268, 69.5 µM (inactive); in the assay on NCI-H226, 50.1 µM (inactive).
As for `O=C1OC2CCCC[C@@H]2C2C[C@]34CCCCC3[C@@H](C(=O)O4)C12` (some centres not stated), the GI50 was greater than 100 µM with HCT-15; > 100 µM (inactive) in the assay with K562; > 100 µM (inactive) with UACC-257; > 100 µM (inactive) with UACC-62; > 100 µM (inactive) in the assay with HCT-116; > 100 µM (inactive) in the assay with NCI-H23. Besides, the GI50 in the assay on HT-29, in the assay with COLO 205, in the assay on KM12, in the assay with NCI-H522, in the assay on HOP-62 and in the assay on SK-MEL-28 was > 100 µM (inactive) each time. Moreover, the GI50 in the assay on ACHN, in the assay with SF-268 and in the assay with NCI-H226 was > 100 µM (inactive) in each case.
Consider `Cc1nn(C(=O)CC(=O)Nc2ccccc2Cl)c(C)c1/N=N/c1ccccc1Cl`, for which the GI50 is greater than 100 µM in the assay on HCT-15; > 100 µM (inactive) in the assay with HL-60; > 100 µM (inactive) in the assay on K562; > 100 µM (inactive) in the assay with UACC-257; > 100 µM (inactive) in the assay with UACC-62; > 100 µM (inactive) in the assay on IGROV-1. Further, the GI50 in the assay on HCT-116, in the assay on NCI-H23, in the assay with HT-29, in the assay on COLO 205, in the assay on KM12 and in the assay on HOP-62 was > 100 µM (inactive) throughout. Further, the GI50 in the assay on SK-MEL-28 was > 100 µM (inactive); in the assay on ACHN it was > 100 µM (inactive); in the assay on SF-268 it was 85.7 µM (inactive).
Consider `CN(C)CCNC(=O)c1cccc2nc3ccc4ccccc4c3nc12`, for which the GI50 in the assay on HCT-15 is 0.0598 µM; in the assay on HL-60, 0.114 µM (active); with K562 it was 0.0931 µM (active); with UACC-257 it was 0.212 µM (active); in the assay with UACC-62, 0.126 µM (active); in the assay with IGROV-1, 0.0817 µM (active). Further, the GI50 in the assay with HCT-116 was 0.0247 µM (active); in the assay with NCI-H23, 0.0942 µM (active); in the assay on HT-29, 0.0499 µM (active); in the assay with COLO 205 it was 0.0434 µM (active); in the assay with KM12, 0.131 µM (active); with HOP-62, 0.147 µM (active). In addition, the GI50 in the assay on SK-MEL-28 was 0.29 µM (active); with ACHN it was 0.0658 µM (active); in the assay with SF-268, 0.0592 µM (active); in the assay on NCI-H226 it was 0.178 µM (active).
With `c1ccc2c(c1)oc1ccc3nsnc3c12`, the GI50 in the assay on HCT-15 was greater than 100 µM; in the assay on HL-60, > 100 µM (inactive); in the assay on K562, > 100 µM (inactive); in the assay on UACC-257 it was > 100 µM (inactive); in the assay with UACC-62, > 100 µM (inactive); with IGROV-1, > 100 µM (inactive). Besides, the GI50 was > 100 µM (inactive) in the assay with HCT-116; > 100 µM (inactive) in the assay on NCI-H23; > 100 µM (inactive) with HT-29; > 100 µM (inactive) in the assay on COLO 205; 56 µM (inactive) with KM12; > 100 µM (inactive) in the assay on NCI-H522. Besides, the GI50 in the assay on SK-MEL-28 is > 100 µM (inactive); in the assay with ACHN it was > 100 µM (inactive); in the assay with SF-268, > 100 µM (inactive); with NCI-H226, 51.6 µM (inactive).
For `C[N+]1(C)C/C(=C\c2ccccc2)C(=O)/C(=C/c2ccccc2)C1`, the GI50 was greater than 100 µM in the assay with HCT-15; > 100 µM (inactive) in the assay with HL-60; 62.2 µM (inactive) in the assay with K562; > 100 µM (inactive) in the assay with UACC-257; > 100 µM (inactive) in the assay on IGROV-1; > 100 µM (inactive) in the assay on HCT-116. Moreover, the GI50 in the assay on NCI-H23, with HT-29, in the assay on COLO 205, in the assay with KM12, in the assay on HOP-62 and in the assay on SK-MEL-28 was > 100 µM (inactive) in each case. Also, the GI50 with ACHN, with SF-268 and in the assay on NCI-H226 was > 100 µM (inactive) throughout.
For `O=C1c2ccccc2C2(Br)C(=O)c3ccccc3C12` (configuration not stated), the GI50 is greater than 100 µM with HCT-15; > 100 µM (inactive) in the assay with HL-60; > 100 µM (inactive) with K562; > 100 µM (inactive) in the assay on UACC-257; > 100 µM (inactive) in the assay with UACC-62; > 100 µM (inactive) with IGROV-1. Besides, the GI50 in the assay on NCI-H23, in the assay on HT-29, with COLO 205, in the assay on KM12, in the assay with NCI-H522 and in the assay on HOP-62 was > 100 µM (inactive) in each case. The GI50 in the assay on SK-MEL-28, in the assay with ACHN and in the assay on SF-268 was > 100 µM (inactive) each time.
For the compound `CSC1(C)CC2C(CC1N1CCCCC1)C2(C)C` (configuration not stated), the GI50 was greater than 100 µM with HCT-15; > 100 µM (inactive) with HL-60; > 100 µM (inactive) with K562; > 100 µM (inactive) in the assay on UACC-257; > 100 µM (inactive) in the assay on IGROV-1; > 100 µM (inactive) with HCT-116. Moreover, the GI50 with NCI-H23, in the assay on HT-29, in the assay on COLO 205, with KM12, in the assay on SK-MEL-28 and with ACHN was > 100 µM (inactive) throughout. For the same compound, the GI50 with SF-268 and in the assay on NCI-H226 was > 100 µM (inactive) each time.
For `O=C(O)c1oc2ccc([N+](=O)[O-])c3c2c1CCC3`, the GI50 in the assay on HL-60, with UACC-257, in the assay with HCT-116, in the assay on NCI-H23, in the assay with HT-29 and with COLO 205 was > 100 µM (inactive) each time. Further, the GI50 in the assay with KM12 was > 100 µM (inactive); in the assay with NCI-H522 it was > 100 µM (inactive); in the assay on HOP-62, > 100 µM (inactive); in the assay on SK-MEL-28, > 100 µM (inactive); in the assay on ACHN it was > 100 µM (inactive); in the assay on SF-268, 74.3 µM (inactive). The GI50 in the assay with NCI-H226 was > 100 µM (inactive).
As for `O=C(CC(=O)N1N=C(N2c3ccccc3Sc3ccccc32)CC1c1ccccc1)Nc1ccc(Cl)cc1` (configuration not stated), the GI50 with HCT-15 is greater than 100 µM; with HL-60 it was > 10 µM (inactive); in the assay on K562 it was > 10 µM (inactive); in the assay with UACC-257 it was > 100 µM (inactive); with UACC-62, > 100 µM (inactive); in the assay on IGROV-1 it was > 100 µM (inactive). In addition, the GI50 in the assay on HCT-116, with NCI-H23, in the assay on HT-29, in the assay on COLO 205, in the assay on KM12 and in the assay with HOP-62 was > 100 µM (inactive) in each case. Also, the GI50 in the assay on SK-MEL-28, with ACHN and with SF-268 was > 100 µM (inactive) in each case.
`O=C(CC(=O)C(=O)CC(=O)OCc1ccccc1)OCc1ccccc1`: the GI50 with HCT-15 was greater than 100 µM; in the assay on HL-60 it was 63.4 µM (inactive); in the assay on K562 it was 58.6 µM (inactive); in the assay with UACC-62, 84.9 µM (inactive); with IGROV-1 it was 78.3 µM (inactive); in the assay on HCT-116, 44.6 µM (inactive). The GI50 was 53.2 µM (inactive) in the assay with NCI-H23; > 100 µM (inactive) in the assay on HT-29; > 100 µM (inactive) with COLO 205; 31.3 µM (inactive) in the assay on NCI-H522; 56.2 µM (inactive) in the assay on HOP-62; 67.6 µM (inactive) with SK-MEL-28. Further, in the assay with SF-268, the GI50 was 32.3 µM (inactive).
`O=C(Nc1nc2ncn(CC(COc3ccccc3)OC(=O)c3ccccc3)c2c(=O)[nH]1)c1ccccc1` (configuration not stated): the GI50 in the assay with HCT-15 is greater than 100 µM; with HL-60, < 0.01 µM (active); in the assay on K562, > 100 µM (inactive); in the assay on UACC-257 it was > 100 µM (inactive); in the assay on UACC-62, > 100 µM (inactive); in the assay with IGROV-1, > 100 µM (inactive). For the same compound, the GI50 in the assay on HCT-116, in the assay with HT-29, in the assay on KM12, in the assay on NCI-H522, with HOP-62 and in the assay on SK-MEL-28 was > 100 µM (inactive) in each case. The GI50 in the assay with ACHN and in the assay with NCI-H226 was > 100 µM (inactive) throughout.
For `COC(=O)C1(C(C)C)CCc2c(OC)ccc(OC)c2C1=O` (configuration not stated), the GI50 is greater than 100 µM in the assay with HCT-15; > 100 µM (inactive) in the assay with HL-60; > 100 µM (inactive) in the assay on K562; > 100 µM (inactive) with UACC-257; 79.8 µM (inactive) with UACC-62; > 100 µM (inactive) with IGROV-1. For the same compound, the GI50 in the assay with HCT-116, in the assay on HT-29, in the assay with COLO 205, in the assay with KM12, in the assay with NCI-H522 and in the assay with HOP-62 was > 100 µM (inactive) throughout. The GI50 with SK-MEL-28, in the assay on ACHN and in the assay with SF-268 was > 100 µM (inactive) each time.
As to `O=C1OC(c2ccccc2)=N/C1=C/NC(Cc1ccc(O)cc1)C(=O)O` (configuration not stated), the GI50 is greater than 100 µM in the assay with HCT-15; > 100 µM (inactive) in the assay on HL-60; > 100 µM (inactive) in the assay on K562; 73.5 µM (inactive) in the assay with UACC-257; > 100 µM (inactive) with HCT-116; > 100 µM (inactive) with NCI-H23. Moreover, the GI50 in the assay on HT-29, in the assay with COLO 205, with KM12, in the assay with NCI-H522, with HOP-62 and in the assay with SK-MEL-28 was > 100 µM (inactive) each time. Further, the GI50 in the assay on ACHN, in the assay on SF-268 and with NCI-H226 was > 100 µM (inactive) in each case.
